Experimental data from ChEMBL document CHEMBL1201862, “PubChem BioAssay data set” (2004).
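Growth conditions: 96-well plates. Treatment: test compound, 48 hours, 5 concentrations. Analysis: linear interpolation between bracketing concentrations; unreached endpoints set to highest concentration. GI50 marks 50% less growth.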 Activity calls are given as the source filed them. Rule as the data show it: active = GI50 up to about 1.1 µM and inactive = higher.

Columns and labels:
Experiment in all cases: NCI-60 cell line screen, 48 h
[1] = test system: 786-0
[2] = test system: A498
[3] = test system: BT-549
[4] = test system: HCT-116
[5] = test system: HCT-15
[6] = test system: HOP-62
[7] = test system: HOP-92
[8] = test system: IGROV-1
[9] = test system: MCF7
[10] = test system: MDA-MB-231
[11] = test system: MDA-N
[12] = test system: NCI-H460
[13] = test system: NCI-H522
[14] = test system: RPMI-8226
[15] = test system: SF-295
[16] = test system: SN12C
[17] = test system: SW-620
[18] = test system: TK-10
[19] = test system: SF-539
[20] = test system: UACC-257

SMILES	GI50 [1]	GI50 [2]	GI50 [3]	GI50 [4]	GI50 [5] [µM]	GI50 [6]	GI50 [7]	GI50 [8]	GI50 [9]	GI50 [10]	GI50 [11]	GI50 [12]	GI50 [13]	GI50 [14]	GI50 [15]	GI50 [16]	GI50 [17]	GI50 [18]	GI50 [19]	GI50 [20]
O=C(O)C1(Nc2ccc(Cl)cc2)CCCC1	> 100 µM (inactive)	> 100 µM (inactive)	> 100 µM (inactive)	76.4 µM (inactive)	11.5	> 100 µM (inactive)	> 100 µM (inactive)	> 100 µM (inactive)	> 100 µM (inactive)	> 100 µM (inactive)	> 100 µM (inactive)	> 100 µM (inactive)	> 100 µM (inactive)	> 100 µM (inactive)	97.9 µM (inactive)	> 100 µM (inactive)	> 100 µM (inactive)	> 100 µM (inactive)	–	–
CN(C)c1cccc(F)c1C(=O)NC(=O)Nc1ccc(Cl)cc1	2.98 µM (inactive)	11.5 µM (inactive)	8.95 µM (inactive)	1.77 µM (inactive)	0.579	5.2 µM (inactive)	27.4 µM (inactive)	3.78 µM (inactive)	2.17 µM (inactive)	14.8 µM (inactive)	0.142 µM (active)	1.91 µM (inactive)	2.27 µM (inactive)	1.81 µM (inactive)	1.55 µM (inactive)	8.83 µM (inactive)	1.24 µM (inactive)	> 100 µM (inactive)	3.15 µM (inactive)	3.42 µM (inactive)
C[S+]([O-])c1cc(=O)c2ccccc2s1 (stereo not drawn)	2.82 µM (inactive)	11.5 µM (inactive)	14.5 µM (inactive)	2.55 µM (inactive)	3.03	27 µM (inactive)	2.94 µM (inactive)	17.5 µM (inactive)	5.42 µM (inactive)	12.6 µM (inactive)	3.05 µM (inactive)	14.9 µM (inactive)	1.13 µM (inactive)	2.9 µM (inactive)	17 µM (inactive)	5.79 µM (inactive)	1.91 µM (inactive)	6.68 µM (inactive)	9.12 µM (inactive)	3.4 µM (inactive)
C/C=C\C(CC(=O)NCCc1cn(C(=O)OCc2ccccc2)c2ccccc12)CC(=O)OC (stereo not drawn)	> 100 µM (inactive)	> 100 µM (inactive)	60 µM (inactive)	91.4 µM (inactive)	> 100	> 100 µM (inactive)	69 µM (inactive)	76.7 µM (inactive)	46.6 µM (inactive)	> 100 µM (inactive)	79.1 µM (inactive)	> 100 µM (inactive)	48.8 µM (inactive)	58.7 µM (inactive)	57 µM (inactive)	–	> 100 µM (inactive)	> 100 µM (inactive)	–	52.8 µM (inactive)
COc1c(O)c(O)c2c(c1O)C(=O)c1cc(C)cc(O)c1C2=O	36.7 µM (inactive)	49.2 µM (inactive)	40.4 µM (inactive)	32.8 µM (inactive)	14.1	56.5 µM (inactive)	92 µM (inactive)	13.2 µM (inactive)	44.8 µM (inactive)	12.2 µM (inactive)	53 µM (inactive)	18.7 µM (inactive)	6.07 µM (inactive)	35.2 µM (inactive)	21.9 µM (inactive)	50.7 µM (inactive)	40 µM (inactive)	49.3 µM (inactive)	> 66.5 µM (inactive)	48.3 µM (inactive)
Cc1ccccc1-n1c(=O)c2ncn(C3CCCO3)c2n(-c2ccccc2C)c1=S (stereo not drawn)	> 100 µM (inactive)	> 100 µM (inactive)	> 100 µM (inactive)	> 100 µM (inactive)	> 100	> 100 µM (inactive)	> 100 µM (inactive)	> 100 µM (inactive)	> 100 µM (inactive)	> 100 µM (inactive)	> 100 µM (inactive)	–	> 100 µM (inactive)	> 100 µM (inactive)	> 100 µM (inactive)	> 100 µM (inactive)	> 100 µM (inactive)	> 100 µM (inactive)	> 100 µM (inactive)	> 100 µM (inactive)
O=C(O)c1nc2cc(C(F)(F)F)ccc2nc1Nc1ccc(Cl)c(Cl)c1	15.9 µM (inactive)	15.8 µM (inactive)	11.1 µM (inactive)	9.23 µM (inactive)	12.3	14.5 µM (inactive)	11 µM (inactive)	18 µM (inactive)	23.8 µM (inactive)	20.7 µM (inactive)	14 µM (inactive)	13.5 µM (inactive)	15.8 µM (inactive)	6.78 µM (inactive)	10.3 µM (inactive)	–	10.8 µM (inactive)	14.2 µM (inactive)	11.4 µM (inactive)	20.7 µM (inactive)
C#CCn1c(=O)c(Cl)cn(/C(=C/C(=O)OCC)C(=O)OCC)c1=O	1.98 µM (inactive)	22.9 µM (inactive)	18.5 µM (inactive)	4.69 µM (inactive)	6.79	20 µM (inactive)	9.77 µM (inactive)	17.3 µM (inactive)	8.45 µM (inactive)	18.2 µM (inactive)	15.3 µM (inactive)	32.4 µM (inactive)	3.38 µM (inactive)	1.91 µM (inactive)	> 47.5 µM (inactive)	22.4 µM (inactive)	2.22 µM (inactive)	2.43 µM (inactive)	6.11 µM (inactive)	5.07 µM (inactive)
CO/N=C(/C(=O)OC)c1ccccc1COc1ccccc1C(F)(F)F	43.6 µM (inactive)	39.7 µM (inactive)	79.1 µM (inactive)	25.1 µM (inactive)	33.3	63.8 µM (inactive)	30.2 µM (inactive)	20.7 µM (inactive)	39.4 µM (inactive)	80.9 µM (inactive)	28.1 µM (inactive)	32.4 µM (inactive)	14.7 µM (inactive)	14.4 µM (inactive)	10.7 µM (inactive)	61.8 µM (inactive)	–	54.5 µM (inactive)	20.3 µM (inactive)	16 µM (inactive)
O=P12N(CCN1c1ccccc1)CCN2c1ccccc1	> 100 µM (inactive)	> 100 µM (inactive)	> 100 µM (inactive)	> 100 µM (inactive)	> 100	> 100 µM (inactive)	80.7 µM (inactive)	> 100 µM (inactive)	> 100 µM (inactive)	> 100 µM (inactive)	> 100 µM (inactive)	> 100 µM (inactive)	84.1 µM (inactive)	> 100 µM (inactive)	> 100 µM (inactive)	> 100 µM (inactive)	> 100 µM (inactive)	> 100 µM (inactive)	> 100 µM (inactive)	> 100 µM (inactive)
O=C(Nc1ccccc1)c1cc(S(=O)(=O)N2CCNNC2=O)c(S)cc1Cl	47.6 µM (inactive)	> 100 µM (inactive)	37.5 µM (inactive)	40.1 µM (inactive)	59.2	–	47.3 µM (inactive)	> 100 µM (inactive)	> 100 µM (inactive)	39 µM (inactive)	> 100 µM (inactive)	> 100 µM (inactive)	24.7 µM (inactive)	33.9 µM (inactive)	> 100 µM (inactive)	> 100 µM (inactive)	33 µM (inactive)	> 100 µM (inactive)	> 100 µM (inactive)	> 100 µM (inactive)
O=c1[nH]c2c(c(=O)[nH]1)SC(c1ccccc1)C2 (stereo not drawn)	> 100 µM (inactive)	> 100 µM (inactive)	> 100 µM (inactive)	> 100 µM (inactive)	> 100	> 100 µM (inactive)	> 100 µM (inactive)	> 100 µM (inactive)	94 µM (inactive)	> 100 µM (inactive)	> 100 µM (inactive)	> 100 µM (inactive)	> 100 µM (inactive)	> 100 µM (inactive)	> 100 µM (inactive)	–	> 100 µM (inactive)	–	> 100 µM (inactive)	> 100 µM (inactive)
CCOC(=O)C1=CN2C(=N[C@H]3CCCC[C@@H]32)NC1=O	> 100 µM (inactive)	> 100 µM (inactive)	> 100 µM (inactive)	> 100 µM (inactive)	> 100	–	> 100 µM (inactive)	> 100 µM (inactive)	> 100 µM (inactive)	> 100 µM (inactive)	> 100 µM (inactive)	> 100 µM (inactive)	> 100 µM (inactive)	> 100 µM (inactive)	> 100 µM (inactive)	> 100 µM (inactive)	> 100 µM (inactive)	> 100 µM (inactive)	> 100 µM (inactive)	> 100 µM (inactive)
Nc1c(S(=O)(=O)O)cc(Nc2cccc(S(=O)(=O)/C=C/S(=O)(=O)O)c2)c2c1C(=O)c1ccccc1C2=O	> 100 µM (inactive)	> 100 µM (inactive)	> 100 µM (inactive)	> 100 µM (inactive)	> 100	> 100 µM (inactive)	> 100 µM (inactive)	> 100 µM (inactive)	> 100 µM (inactive)	> 100 µM (inactive)	> 100 µM (inactive)	> 100 µM (inactive)	> 100 µM (inactive)	> 100 µM (inactive)	> 100 µM (inactive)	> 100 µM (inactive)	> 100 µM (inactive)	> 100 µM (inactive)	> 100 µM (inactive)	> 100 µM (inactive)
C=C1C(NC)CCC23CC24CCC2(C)C(C(C)=O)C(O)CC2(C)C4CCC13 (stereo not drawn)	80.5 µM (inactive)	> 100 µM (inactive)	64.3 µM (inactive)	70.3 µM (inactive)	> 100	–	> 100 µM (inactive)	> 100 µM (inactive)	70.5 µM (inactive)	> 100 µM (inactive)	63.7 µM (inactive)	> 100 µM (inactive)	84.9 µM (inactive)	45 µM (inactive)	28.4 µM (inactive)	20.4 µM (inactive)	> 100 µM (inactive)	> 100 µM (inactive)	59 µM (inactive)	> 100 µM (inactive)
